Source: patent US20110034551A1, “METHODS OF INCREASING SARCOSINE LEVELS FOR TREATING SCHIZOPHRENIA” (BG MEDICINE, INC., priority 2007, published 2011)

Experiments:
plasma sarcosine = experiment: 28-day oral dosing study in rats, plasma sarcosine abundance by Polar LC/MS and GC/MS; format: in vivo, rat; details: 300 mg/kg daily oral, end of 28-day treatment
Description: Fenofibrate (Sigma F-6020, Lot. 064K1584) and MPC-1 (Mitsubishi Pharma Corporation, Lot. F) were used in this study. These test substances were stored at room temperature.
Seventy-three male Crj:CD(SD)IGS rats (4.5 weeks old) were quarantined and acclimated for seven days after receipt. Two days before the initiation of dosing (Day −2), rats which had no abnormalities in clinical observation and body weight during the quarantine and acclimation period were selected and assigned to 5 groups using the stratified-by-weight randomization method to yield approximately the same mean body weights amongst the study groups.
The rats were dosed by oral gavage using a disposable stomach tube connecting to a syringe, at the dose volume of 5 mL/kg. The dosing was conducted once daily for 28 days. A control group was dosed with the vehicle only. Individual doses were calculated based on the most recently recorded body weights.
Preparation of dosing suspensions was as follows. The specified amount of test substance for each dose level was weighed and crushed with an agate mortar and a pestle. […]
Based on the total number of samples, the batches of samples were set up according to a batching scheme. Each sample was analyzed in duplicate. […] Each batch is analyzed in one analytical run. […]
All compounds eluting from the GC/MS column were detected in full scan mode. […]

[1] = target: T1, type 1 glycine transporter, GLYT1 (Rattus norvegicus, UniProt P28572); details: rat brain aggregates; Atkinson, et al. 2001; read-out: IC50 for inhibition of glycine transport; cited from earlier work
T1 construct: glycine transport in rat brain aggregates; host or cells: rat brain aggregates (endogenous protein)
T1 sequence (P28572 1-638): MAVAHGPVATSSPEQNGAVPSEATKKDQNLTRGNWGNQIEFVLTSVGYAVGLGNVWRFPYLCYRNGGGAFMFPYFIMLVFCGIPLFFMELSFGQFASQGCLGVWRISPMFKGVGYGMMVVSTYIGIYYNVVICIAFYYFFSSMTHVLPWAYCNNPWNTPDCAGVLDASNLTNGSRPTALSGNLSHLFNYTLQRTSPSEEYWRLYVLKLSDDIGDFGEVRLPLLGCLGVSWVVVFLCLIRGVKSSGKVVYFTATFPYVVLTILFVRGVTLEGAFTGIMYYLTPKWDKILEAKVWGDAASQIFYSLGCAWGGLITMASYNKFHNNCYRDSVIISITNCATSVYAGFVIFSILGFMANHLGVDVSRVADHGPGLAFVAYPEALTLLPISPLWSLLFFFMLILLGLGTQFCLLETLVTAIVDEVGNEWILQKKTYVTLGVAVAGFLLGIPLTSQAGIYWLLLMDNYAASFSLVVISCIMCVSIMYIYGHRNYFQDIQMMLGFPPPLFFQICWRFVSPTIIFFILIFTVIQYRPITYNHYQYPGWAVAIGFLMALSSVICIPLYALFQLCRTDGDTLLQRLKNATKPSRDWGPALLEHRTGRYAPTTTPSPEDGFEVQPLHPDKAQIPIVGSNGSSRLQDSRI

glycine transport = details: other studies; read-out: IC50 for inhibition of glycine transport; cited from earlier work
schizophrenia = details: 2 g/day as add-on therapy to certain antipsychotics (but not clozapine), schizophrenia patients; cited from earlier work

| SMILES | median fold change in plasma sarcosine abundance relative to vehicle (plasma sarcosine; GC/MS platform) | median fold change in plasma sarcosine abundance relative to vehicle (plasma sarcosine; Polar LC/MS platform) | IC50 [1] [µM] | IC50 (glycine transport) [µM] | effect on symptoms of schizophrenia (schizophrenia) |
| --- | --- | --- | --- | --- | --- |
| CC(C)OC(=O)C(C)(C)Oc1ccc(C(=O)c2ccc(Cl)cc2)cc1 [fenofibrate] | 3.74 | 4.25 | – | – | – |
| CNCC(=O)O [sarcosine, N-methylglycine] | – | – | 13 | ~100 | additional reductions in both positive and negative symptomatology |
